# Results as given in patent US20060074243A1, “Hydroxamic acid and amide compounds and their use as protease inhibitors” (Pharmacia Corporation, priority 2002, published 2006).
# Biological target: T1, Human recombinant MMP-2 (Homo sapiens, UniProt P08253)
# T1 construct: made in house; host or cells: MMP-2-transfected p2AHT2 cells
# T1 sequence (P08253 110-660): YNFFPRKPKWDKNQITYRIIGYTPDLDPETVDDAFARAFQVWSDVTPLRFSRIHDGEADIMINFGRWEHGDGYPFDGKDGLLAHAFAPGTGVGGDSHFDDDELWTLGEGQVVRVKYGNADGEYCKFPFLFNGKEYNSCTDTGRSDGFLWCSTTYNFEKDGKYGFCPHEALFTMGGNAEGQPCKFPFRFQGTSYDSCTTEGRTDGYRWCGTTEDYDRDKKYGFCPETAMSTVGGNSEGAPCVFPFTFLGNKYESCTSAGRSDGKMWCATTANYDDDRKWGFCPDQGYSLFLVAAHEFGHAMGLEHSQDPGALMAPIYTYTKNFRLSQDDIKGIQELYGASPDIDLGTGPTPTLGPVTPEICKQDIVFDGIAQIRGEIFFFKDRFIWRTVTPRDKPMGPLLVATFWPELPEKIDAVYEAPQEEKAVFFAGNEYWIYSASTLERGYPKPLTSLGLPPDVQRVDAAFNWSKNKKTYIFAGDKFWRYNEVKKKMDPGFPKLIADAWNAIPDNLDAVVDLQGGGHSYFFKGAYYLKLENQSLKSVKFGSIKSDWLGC
# Assay: In vitro MMP inhibition analysis (fluorogenic peptide substrate cleavage), Ki
# Assay type: biochemical
# Procedure: Several compounds and salts were analyzed in an in vitro assay to determine their ability to inhibit the MMP cleavage of peptide substrates. Inhibition constant (Ki) were calculated from the assayed compound-MMP interactions.
# Human recombinant MMP-1, MMP-2, MMP-9, MMP-13, and MMP-14 were used in this assay. All enzymes were prepared in Assignee's laboratories following usual laboratory procedures. Protocols for the preparation and use of these enzymes are available in the scientific literature. See, e.g., Enzyme Nomenclature (Academic Press, San Diego, Calif., 1992) (and the citations therein). See also, Frije et al., J. Biol. Chem., 26(24), 16766-73 (1994).
# The MMP-2 proenzyme was purified by gelatin Sepharose chromatography from MMP-2-transfected p2AHT2 cells provided by Dr. Gregory Goldberg of Washington University (St. Louis, Mo.).
# All MMPs were activated using 4-aminophenylmercuric acetate (“APMA”, Sigma Chemical, St. Louis, Mo.) or trypsin. MMP-9 also was activated using human recombinant MMP-3 (purified in Assignee's laboratory following standard cloning and purification techniques).
# The following fluorogenic, methoxycoumarin-containing polypeptide substrate (I) was used in the MMP inhibition assays: MCA-ArgProLeuGlyLeuDpaAlaArgGluArgNH2 (I) “MCA” is 7-methoxycoumarin-4-yl acetyl. Substrate (I) was prepared Assignee's laboratory. In the absence of MMP inhibitory activity, the substrate is cleaved at the Gly-Leu peptide bond. This cleavage separates the highly fluorogenic peptide from the 2,4-dinitrophenyl quencher, thus resulting in increase of fluorescent intensity.
# The stock solutions of the assayed compounds and salts were prepared in […] (DMSO). These stock solutions were diluted in Buffer A (100 mM Tris-HCl, 100 mM NaCl, 10 mM CaCl2, 0.05% polyoxyethylene 23 lauryl ether, pH 7.5) to obtain solutions with different compound concentrations, i.e., assay solutions with different concentrations of the assayed […] compound. The experiment controls contained the same amount of Buffer A/DMSO as the assayed sample, but contained none of the tested compound or salt.
# The assays from which the Ki determinations were made were performed as follows. The assayed compound samples were incubated in separate wells of untreated white polystyrene plates (Nunc Nalgene International, Rochester, N.Y.), and analyzed on a Tecan SpectraFlour Plus plate reader. The excitation wavelength was 330 nm, and the emission wavelength—420 nm. All samples (assayed compounds and controls) were incubated in separate plate wells at room temperature for 1 hr in the presence of 4 μM of MMP substrate (I). In the absence of MMP inhibitory activity, substrate (I) was cleaved at the Gly-Leu bond resulting in an increase of relative fluorescence. Inhibition was observed as a reduced rate of this increase in relative fluorescence. […] This protocol is a modification of method by Knight et al., FEBS Lett., 296(3), 263-266 (1992). Apparent inhibitory constants were determined by non-linear regression of reaction velocity as a function of inhibitor and enzyme concentration using Morrison's equation, as described by Kuzmic, Anal. Biochem. 286, 45-50 (2000). Modifications were made in the non-linear regression method to allow a common control reaction rate and effective enzyme concentration to be shared between all dose-response relationships on a given assay plate. Since the substrate concentration was chosen to be at or below the Km, the apparent Ki's from this analysis were reported as Ki's without correction for the influence of substrate.
# The above protocols were used to determine Ki constants for the compounds in Examples 2-35 above. All Ki values in Table 1 are given in nM units.
SMILES,Ki (Table 2) [nM],Ki (Table 1) [nM]
CCN1CCC(C(=O)NO)(S(=O)(=O)c2ccc(-c3ccc(CCC(F)(F)C(F)(F)F)cn3)cc2)CC1 [Example 52],,0.21
O=C(NO)C1(S(=O)(=O)c2ccc(-c3ncccn3)cc2)CCOCC1 [Example 121],46.8,
O=C(NO)C1(S(=O)(=O)c2ccc(-c3ccc(CCCC(F)(F)F)cn3)cc2)CCOCC1 [Example 69],,0.322
O=C(NO)C1(S(=O)(=O)c2ccc(-c3cnc(-c4cccs4)cn3)cc2)CCOCC1 [Example 160],2.01,
O=C(NO)C1(S(=O)(=O)c2ccc(-c3ncc(CCC(F)(F)C(F)(F)F)cn3)cc2)CCOCC1 [Example 137],2.72,
CC(C)(C)CCNc1cnc(-c2ccc(S(=O)(=O)C3(C(=O)NO)CCOCC3)cc2)cn1 [Example 130],14.2,
CC(=O)Nc1cnc(-c2ccc(S(=O)(=O)C3(C(=O)NO)CCOCC3)cc2)cn1 [Example 76],10.3,
CCN1CCC(C(=O)NO)(S(=O)(=O)c2ccc(-c3noc(-c4ccncc4)n3)cc2)CC1 [Example 148],7.26,
CCN1CCC(C(=O)NO)(S(=O)(=O)c2ccc(-c3ccc(Oc4ccccc4)cc3)cc2)CC1 [Example 135],4.22,
COCCN1CCC(C(=O)NO)(S(=O)(=O)c2ccc(-c3ccc(CCC(C)(F)F)cn3)cc2)CC1 [Example 67],,0.14
O=C(NO)C1(S(=O)(=O)c2ccc(-c3cnc(CCC(F)(F)F)cn3)cc2)CCOCC1 [Example 62],,0.88
O=C(NO)C1(S(=O)(=O)c2ccc(-c3cscc3-c3ccc(F)cc3)cc2)CCOCC1 [Example 132],153,
O=C(NO)C1(S(=O)(=O)c2ccc(-c3cnc(NCC4CC4)cn3)cc2)CCOCC1 [Example 128],5.08,
COCCN1CCC(C(=O)NO)(S(=O)(=O)c2ccc(-c3ccc(OC(F)(F)C(F)F)cc3)cc2)CC1 [Example 39],,0.009
COCCN1CCC(C(=O)NO)(S(=O)(=O)c2ccc(-c3ccc(CCC(C)(F)F)cc3)cc2)CC1 [Example 63],,0.04
O=C(NO)C1(S(=O)(=O)c2ccc(-c3ccc(CCC(F)(F)C(F)(F)F)cc3)cc2)CCOCC1 [Example 41],,0.375
O=C(NO)C1(S(=O)(=O)c2ccc(-c3cnc(CCCC(F)(F)F)cn3)cc2)CCOCC1 [Example 58],,2.02
COCCN1CCC(C(=O)NO)(S(=O)(=O)c2ccc(-c3ccc(CCCC(F)(F)F)cc3)cc2)CC1 [Example 43],,0.29

# Other lines, results leading:
Ki (Table 2) [nM],Ki (Table 1) [nM],SMILES
0.304,,O=C(NO)C1(S(=O)(=O)c2ccc(-c3ccc(OCCCC(F)(F)F)cc3)cc2)CCOCC1 [Example 74]
0.6,,COCC#Cc1cnc(-c2ccc(S(=O)(=O)C3(C(=O)NO)CCOCC3)cc2)cn1 [Example 164]
0.37,,COCCN1CCC(C(=O)NO)(S(=O)(=O)c2ccc(-c3cnc(OCC(F)(F)C(F)(F)F)cn3)cc2)CC1 [Example 157]
0.147,,O=C(NO)C1(S(=O)(=O)c2ccc(-c3ccc(-n4ccnc4)cc3)cc2)CCOCC1 [Example 127]
0.26,,O=C(NO)C1(S(=O)(=O)c2ccc(-c3ccc(-c4ccccc4)cc3)cc2)CCN(C2CC2)CC1 [Example 153]
0.76,,CCN1CCC(C(=O)NO)(S(=O)(=O)c2ccc(-c3noc(-c4ccc(C(F)(F)F)cc4)n3)cc2)CC1 [Example 149]
1.75,,CCN1CCC(C(=O)NO)(S(=O)(=O)c2ccc(-c3noc(-c4ccc(F)cc4)n3)cc2)CC1 [Example 147]
0.15,,O=C(NO)C1(S(=O)(=O)c2ccc(-c3ccc(-c4ccccc4)cn3)cc2)CCN(C2CC2)CC1 [Example 151]
0.191,,CCCCOc1ccc(-c2ccc(S(=O)(=O)C3(C(=O)NO)CCN(C4CC4)CC3)cc2)cc1 [Example 120]
0.176,,CCCCc1ccc(-c2ccc(S(=O)(=O)C3(C(=O)NO)CCN(CC)CC3)cc2)nc1 [Example 140]
0.39,,O=C(NO)C1(S(=O)(=O)c2ccc(-c3cnc(OCC(F)(F)C(F)(F)F)cn3)cc2)CCN(C2CC2)CC1 [Example 156]
0.13,,O=C(NO)C1(S(=O)(=O)c2ccc(-c3cnc(OCC(F)(F)C(F)(F)F)cn3)cc2)CCOCC1 [Example 154]
